From patent publication US11944626B2, “Small molecule inhibitors of ALDH and uses thereof” (The Regents of the University of Michigan, priority 2016, dated 2024)

Columns and labels:
ALDH2 = molecular target: T1, ALDH2 (Homo sapiens, UniProt P05091); experiment: Inhibition of ALDH isoenzymes (NAD(P)H formation at 340 nm, purified recombinant enzyme); format: biochemical; parameters: key to ALDH2 inhibition at 20 μM (N.I.): N.I.: No inhibition at 20 μM; conditions: compound at 20 μM; for remaining activity at 20 µM: read-out: ALDH2 % Control at 20 μM;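 as to all read-outs here: run at 25 °C, started by adding substrate after 2 min preincubation, with 100-200 nM ALDH2, 200 µM NAD+, 100 µM propionaldehyde, 1% DMSO in BES buffer pH 7.5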
T1 sequence (P05091 18-517): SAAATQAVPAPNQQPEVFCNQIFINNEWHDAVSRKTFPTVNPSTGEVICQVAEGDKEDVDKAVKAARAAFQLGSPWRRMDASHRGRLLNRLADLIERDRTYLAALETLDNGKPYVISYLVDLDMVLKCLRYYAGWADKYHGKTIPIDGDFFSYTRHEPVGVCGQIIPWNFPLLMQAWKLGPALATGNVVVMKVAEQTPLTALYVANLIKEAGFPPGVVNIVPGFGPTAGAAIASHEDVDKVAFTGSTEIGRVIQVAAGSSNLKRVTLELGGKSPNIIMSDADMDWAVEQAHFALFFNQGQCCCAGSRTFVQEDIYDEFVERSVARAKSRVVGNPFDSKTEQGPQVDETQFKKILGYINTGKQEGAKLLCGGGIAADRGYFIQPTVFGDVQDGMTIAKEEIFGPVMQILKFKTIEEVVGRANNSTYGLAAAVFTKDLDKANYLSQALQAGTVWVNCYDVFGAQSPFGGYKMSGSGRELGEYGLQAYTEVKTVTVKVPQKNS

OVSAHO = OVSAHO Cell Viability; format: cell-based; conditions: for OVSAHO Cell Viability (30 μM) % CD133 + % ctrl / OVSAHO Cell Viability (50 μM) % CD133 + % ctrl: CD133+ cells; for OVSAHO Cell Viability (30 μM) Total Cell % ctrl / OVSAHO Cell Viability (50 μM) Total Cell % ctrl: total cells
ALDH1A2 = molecular target: T2, ALDH1A2 (Homo sapiens, UniProt O94788); experiment: Inhibition of ALDH isoenzymes (NAD(P)H formation at 340 nm, purified recombinant enzyme); format: biochemical; conditions: for remaining activity at 20 µM: compound at 20 μM, read-out: ALDH1A2 % Control at 20 μM
T2 sequence (O94788 1-518): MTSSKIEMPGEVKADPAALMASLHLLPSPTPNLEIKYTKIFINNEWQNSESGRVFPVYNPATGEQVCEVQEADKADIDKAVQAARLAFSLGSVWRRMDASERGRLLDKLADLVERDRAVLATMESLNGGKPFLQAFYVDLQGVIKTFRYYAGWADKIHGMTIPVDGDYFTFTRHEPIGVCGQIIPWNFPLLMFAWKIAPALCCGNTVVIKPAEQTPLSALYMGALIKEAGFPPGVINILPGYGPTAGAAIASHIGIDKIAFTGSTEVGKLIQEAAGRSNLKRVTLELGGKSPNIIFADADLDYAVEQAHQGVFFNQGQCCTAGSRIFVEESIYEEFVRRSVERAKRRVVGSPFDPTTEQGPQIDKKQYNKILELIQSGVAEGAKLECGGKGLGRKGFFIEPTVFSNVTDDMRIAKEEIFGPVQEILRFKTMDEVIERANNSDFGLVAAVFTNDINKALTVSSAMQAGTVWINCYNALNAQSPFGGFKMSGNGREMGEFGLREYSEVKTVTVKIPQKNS

ALDH1A1 = molecular target: T3, ALDH1A1 (Homo sapiens, UniProt P00352); experiment: as above; format: biochemical; conditions: for remaining activity at 20 µM: compound at 20 μM, read-out: ALDH1A1 % Control at 20 μM
T3 sequence (P00352 1-501): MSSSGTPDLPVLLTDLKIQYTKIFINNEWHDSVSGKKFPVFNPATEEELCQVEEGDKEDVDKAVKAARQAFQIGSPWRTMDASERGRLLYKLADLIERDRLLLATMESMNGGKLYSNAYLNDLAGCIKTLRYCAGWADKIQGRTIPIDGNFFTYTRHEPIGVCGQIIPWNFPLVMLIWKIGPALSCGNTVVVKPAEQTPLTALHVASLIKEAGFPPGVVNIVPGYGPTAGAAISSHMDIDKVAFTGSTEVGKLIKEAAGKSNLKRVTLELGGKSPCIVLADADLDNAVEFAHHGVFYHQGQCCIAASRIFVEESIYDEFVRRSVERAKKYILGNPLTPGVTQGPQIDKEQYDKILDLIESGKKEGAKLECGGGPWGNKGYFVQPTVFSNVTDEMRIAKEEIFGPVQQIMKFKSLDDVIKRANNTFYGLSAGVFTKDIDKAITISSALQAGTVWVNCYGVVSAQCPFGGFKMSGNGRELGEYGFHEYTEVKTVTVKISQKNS

[1] = 100-200 nM enzyme, 200 μM NAD+, 100 μM propionaldehyde, pH 7.5, 25° C.

Row | SMILES | remaining activity at 20 µM (ALDH2) | OVSAHO Cell Viability (50 μM) % CD133 + % ctrl (OVSAHO) | OVSAHO Cell Viability (50 μM) Total Cell % ctrl (OVSAHO) | further results
1 | CC(Sc1nc2c(cnn2C)c(=O)n1-c1ccccc1)c1ccccc1 (racemic) [Example 61, 1-methyl-5-phenyl-6-((1-phenylethyl)thio)-1H-pyrazolo[3,4-d]pyrimidin-4(5H)-one] | 107% | – | – | OVSAHO Cell Viability (30 μM) % CD133 + % ctrl (OVSAHO): 88% ctrl; OVSAHO Cell Viability (30 μM) Total Cell % ctrl (OVSAHO): 7% ctrl
2 | O=c1c2cn[nH]c2nc(SCc2cccc(F)c2)n1-c1ccccc1 [Example 2, 6-((3-fluorobenzyl)thio)-5-phenyl-1H-pyrazolo[3,4-d]pyrimidin-4(5H)-one] | – | 58 % ctrl | 39 % ctrl | –
3 | Cc1ccccc1-n1c(SCc2cccc(F)c2)nc2c(cnn2C)c1=O [Example 3, 6-((3-fluorobenzyl)thio)-1-methyl-5-(o-tolyl)-1H-pyrazolo[3,4-d]pyrimidin-4(5H)-one] | – | – | – | IC50 (ALDH1A2; [1]): > 20 µM
4 | Cc1ccccc1-n1c(SCc2cccc(F)c2)nc2c(cnn2C2COC2)c1=O [Example 9, 6-((3-fluorobenzyl)thio)-1-(oxetan-3-yl)-5-(o-tolyl)-1H-pyrazolo[3,4-d]pyrimidin-4(5H)-one] | – | 50 % ctrl | 22 % ctrl | remaining activity at 20 µM (ALDH1A2): 31%
5 | Cc1ccccc1-n1c(SCc2cccc(F)c2)nc2c(cnn2CC2COC2)c1=O [Example 11, 6-((3-fluorobenzyl)thio)-1-(oxetan-3-ylmethyl)-5-(o-tolyl)-1H-pyrazolo[3,4-d]pyrimidin-4(5H)-one] | – | 69 % ctrl | 30 % ctrl | –
6 | Cn1cc2c(=O)n(-c3ccccc3)c(SCc3cccc(F)c3)nc2n1 [Example 13, 6-((3-fluorobenzyl)thio)-2-methyl-5-phenyl-2H-pyrazolo[3,4-d]pyrimidin-4(5H)-one] | – | 83 % ctrl | 69 % ctrl | –
7 | Cn1ncc2c(=O)n(-c3ccccc3)c(SCc3cccc(F)c3)nc21 [Example 27, 6-((3-fluorobenzyl)thio)-1-methyl-5-phenyl-1H-pyrazolo[3,4-d]pyrimidin-4(5H)-one] | – | – | – | ALDH2 inhibition at 20 μM (N.I.) (ALDH2): N.I.
8 | Cn1ncc2c(=O)n(-c3cccnc3)c(SCc3cccc(F)c3)nc21 [Example 31, 6-((3-fluorobenzyl)thio)-1-methyl-5-(pyridin-3-yl)-1H-pyrazolo[3,4-d]pyrimidin-4(5H)-one] | – | 81 % ctrl | 79 % ctrl | –
9 | Cn1ncc2c(=O)n(-c3ccncc3)c(SCc3cccc(F)c3)nc21 [Example 32, 6-((3-fluorobenzyl)thio)-1-methyl-5-(pyridin-4-yl)-1H-pyrazolo[3,4-d]pyrimidin-4(5H)-one] | – | 75 % ctrl | 66 % ctrl | IC50 (ALDH1A1; [1]): 5.2 µM
10 | Cn1ncc2c(=O)n(-c3ccccn3)c(SCc3cccc(F)c3)nc21 [Example 34, 6-((3-fluorobenzyl)thio)-1-methyl-5-(pyridin-2-yl)-1H-pyrazolo[3,4-d]pyrimidin-4(5H)-one] | – | 81 % ctrl | 77 % ctrl | –
11 | Cn1ncc2c(=O)n(Cc3ccccc3)c(SCc3cccc(F)c3)nc21 [Example 36, 5-benzyl-6-((3-fluorobenzyl)thio)-1-methyl-1H-pyrazolo[3,4-d]pyrimidin-4(5H)-one] | – | 5 % ctrl | 12 % ctrl | ALDH2 inhibition at 20 μM (N.I.) (ALDH2): N.I.
12 | Cn1c(SCc2cccc(F)c2)nc2c(cnn2C)c1=O [Example 37, 6-((3-fluorobenzyl)thio)-1,5-dimethyl-1H-pyrazolo[3,4-d]pyrimidin-4(5H)-one] | – | 88 % ctrl | 7 % ctrl | –
13 | CC(Sc1nc2nn(CC3COC3)cc2c(=O)n1-c1ccccc1)c1ccccc1 (stereo not shown) [Example 64, 2-(oxetan-3-ylmethyl)-5-phenyl-6-((1-phenylethyl)thio)-2H-pyrazolo[3,4-d]pyrimidin-4(5H)-one] | 100% | – | – | –
14 | CC(Oc1nc2c(cnn2C)c(=O)n1-c1ccccc1)c1ccccc1 (stereo not shown) [Example 66, 1-methyl-5-phenyl-6-(1-phenylethoxy)-1H-pyrazolo[3,4-d]pyrimidin-4(5H)-one] | 92% | – | – | OVSAHO Cell Viability (30 μM) Total Cell % ctrl (OVSAHO): 76% ctrl

More lines, main results first:

Row | remaining activity at 20 µM (ALDH2) | SMILES | OVSAHO Cell Viability (50 μM) % CD133 + % ctrl (OVSAHO) | OVSAHO Cell Viability (50 μM) Total Cell % ctrl (OVSAHO) | further results
15 | 137% | Cn1ncc2c(=O)n(-c3cccc(Cl)c3)c(SCc3cccc(F)c3)nc21 [Example 42, 5-(3-chlorophenyl)-6-((3-fluorobenzyl)thio)-1-methyl-1H-pyrazolo[3,4-d]pyrimidin-4(5H)-one] | – | – | –
16 | 153% | Cn1ncc2c(=O)n(-c3ccc(Cl)cc3)c(SCc3cccc(F)c3)nc21 [Example 43, 5-(4-chlorophenyl)-6-((3-fluorobenzyl)thio)-1-methyl-1H-pyrazolo[3,4-d]pyrimidin-4(5H)-one] | – | – | –
17 | 110% | Cn1ncc2c(=O)n(-c3ccccc3)c(/C=C/c3cccc(F)c3)nc21 [Example 47, (E)-6-(3-fluorostyryl)-1-methyl-5-phenyl-1H-pyrazolo[3,4-d]pyrimidin-4(5H)-one] | – | – | remaining activity at 20 µM (ALDH1A2): 15%; remaining activity at 20 µM (ALDH1A1): 28%
18 | 89% | Cn1ncc2c(=O)n(-c3ccccc3)c(CNc3cccc(F)c3)nc21 [Example 49, 6-(((3-fluorophenyl)amino)methyl)-1-methyl-5-phenyl-1H-pyrazolo[3,4-d]pyrimidin-4(5H)-one] | – | – | –
19 | 92% | Cn1ncc2c(=O)n(-c3ccccc3)c(CSc3cccc(F)c3)nc21 [Example 51, 6-(((3-fluorophenyl)thio)methyl)-1-methyl-5-phenyl-1H-pyrazolo[3,4-d]pyrimidin-4(5H)-one] | – | – | remaining activity at 20 µM (ALDH1A1): 25%
20 | 91% | Cn1ncc2c(=O)n(-c3ccccc3)c(OCc3cccc(F)c3)nc21 [Example 60, 6-((3-fluorobenzyl)oxy)-1-methyl-5-phenyl-1H-pyrazolo[3,4-d]pyrimidin-4(5H)-one] | – | – | OVSAHO Cell Viability (30 μM) % CD133 + % ctrl (OVSAHO): 76% ctrl; OVSAHO Cell Viability (30 μM) Total Cell % ctrl (OVSAHO): 35% ctrl
21 | 103% | CN(Cc1nc2c(cnn2C)c(=O)n1-c1ccccc1)c1cccc(F)c1 [Example 62, 6-(((3-fluorophenyl)(methyl)amino)methyl)-1-methyl-5-phenyl-1H-pyrazolo[3,4-d]pyrimidin-4(5H)-one] | – | – | OVSAHO Cell Viability (30 μM) % CD133 + % ctrl (OVSAHO): 96% ctrl; OVSAHO Cell Viability (30 μM) Total Cell % ctrl (OVSAHO): 65% ctrl
22 | 100% | C[C@@H](Sc1nc2c(cnn2C)c(=O)n1-c1ccccc1)c1ccccc1 [Example 65, (R)-1-methyl-5-phenyl-6-((1-phenylethyl)thio)-1H-pyrazolo[3,4-d]pyrimidin-4(5H)-one] | – | – | OVSAHO Cell Viability (30 μM) % CD133 + % ctrl (OVSAHO): 117% ctrl; OVSAHO Cell Viability (30 μM) Total Cell % ctrl (OVSAHO): 75% ctrl
23 | 91% | CC(Sc1nc2c(cnn2C)c(=O)n1-c1ccccc1)c1cccc(O)c1 (stereo not shown) [Example 78, 6-((1-(3-hydroxyphenyl)ethyl)thio)-1-methyl-5-phenyl-1H-pyrazolo[3,4-d]pyrimidin-4(5H)-one] | – | – | remaining activity at 20 µM (ALDH1A2): 0%; remaining activity at 20 µM (ALDH1A1): 4%
